Results taken from EP4772500A1, “NOVEL ISOXAZOLE COMPOUND AS TM4SF5-SPECIFIC INHIBITOR AND USE THEREOF” (Seoul National University R&DB Foundation, priority 2023, dated 2025).

System: C57BL/6 mice on Methionine-Choline Deficient (MCD) diet
Test: MCD diet non-alcoholic steatohepatitis (NASH) mouse model
Assay type: in vivo
Excerpt: Wildtype (WT), Alb-TG^Tm4sf5-Flag, and Tm4sf5^-/- (Tm4sf5 gene-deficient) KO C57BL/6N mice were raised in a pathogen-free room animal facility where temperature and humidity were well controlled. For the experiment to establish the steatohepatitis NASH disease model, 22-week-old mice were used. For the induction of hepatic steatohepatitis through an MCD (TD.90262, Teklad) diet, 6-week-old male mice were randomly divided into normal chow diet (NCD, Purina, Cat # 38057) and MCD groups and allowed free access to the diet for 4 weeks (7 mice per group). When treating with drugs, intraperitoneal injection was performed at a concentration of 5 mg/kg twice a week. After the end of the experiment, liver tissues were obtained and analyzed through methods of H&E, immunohistochemistry tissue staining, Western blot, and qRT-PCR.
Normal 22-week-old C57BL/6 mice were randomly divided into a normal chow diet (NCD) group and a Methionine-Choline Deficient (MCD) diet group, which is a non-alcoholic steatohepatitis (NASH) induction diet, with 3 to 6 mice per group, and were allowed free access to the diets for 4 weeks. Simultaneously, vehicle (DMSO) or ST-2-001 at a concentration of 5 mg/kg was treated twice a week per animal via intraperitoneal injection (IP). After 4 weeks, liver tissues were obtained, and Masson's Trichrome staining showing the accumulation of collagen I (degree of fibrosis) and immunohistochemistry using antibodies against the given factors were performed. Representative images were obtained by randomly scanning the stained liver tissue sections using a digital slide scanner (MoticEasyScan, Motic, British Columbia, Canada). Additionally, tissue extracts were obtained from a portion of the liver tissues to perform Western blotting or qRT-PCR for the given factors, thereby confirming the mRNA and protein expression levels and phosphorylation degrees of signaling factors related to the induction of NASH-fibrosis symptoms and the regulation of T or NK cell activity. Meanwhile, in addition to the animal models, it was intended to confirm whether the expressions of TM4SF5, laminin γ2, and AFP correlate with each other at the hepatocyte level and are regulated by the TM4SF5-specific inhibitor isoxazole compound.

[1] = MCD diet, liver tissue extracts (FIG. 8c)

Compound: COc1ccc(-c2cc(-c3ccc(NC(C)=O)cc3)no2)cc1 [ST-2-001, N-(4-(5-(4-methoxyphenyl)isoxazole-3-yl)phenyl)acetamide]
- NASH-fibrosis symptoms (MCD diet, 5 mg/kg IP twice a week, 4 weeks, tissue staining (FIG. 8a)): clearly inhibited
- CPT1 (carnitine palmitoyltransferase 1) [1]: rather increased
- expressions and levels of fibrosis-related factors, factors related to lipogenesis and steatosis, and cytokines/chemokines related to inflammation [1]: suppressed
- α-Sma, Afp, and Pd-ll expression (MCD diet, liver tissue extracts, Western blotting (FIG. 8b)): decreased
- mRNA levels for lipogenesis (Acc, Dgat2, Fasn) and activation of Kupffer cells (Trem2, Tim4, Clec4j) (MCD diet, liver tissues, qRT-PCR (FIG. 8d)): inhibited
- effect on the liver tissue or the expression of the stained factors (NCD (normal chow diet), 5 mg/kg IP twice a week (FIG. 8a)): had no effect
- expression of α-Sma, Afp, Pd-l1 (NCD, liver tissue extracts, Western blotting (FIG. 8b)): slightly decreased
